From patent US20130115356A1, “SWEETENER COMPOSITION” (FIRMENICH SA, priority 2010, published 2013)

Columns and labels:
[1] = Trained panel taste evaluation of lemon ice tea beverages; type: in vivo, human; settings: conclusion from Table 3, sclareolide 0.075 wt % in Base B
Protocol: Lemon ice tea beverages were prepared with the following ingredients in the amounts shown (grams). Base A is the full sucrose product (i.e. control sample). Base B is the same as base A except with 50% reduced sucrose and additional stevia sweetener in to provide the same level of sweetness.
The ingredients for each base were mixed together until fully dissolved.
The samples were then evaluated by a trained panel of 10 people. Tasting was performed by a blind and balanced presentation order of the samples with the intensity of acidity, bitterness, sweetness and liquorice all being assessed on a scale of 0 to 5 where 0 represents not perceptible and 5 represents very intense.
The scores were averaged and an analysis of variance was performed to identify significant differences between the samples.

[2] = Panel evaluation of a carbonated lemon beverage formulation; type: in vivo, human; settings: carbonated lemon beverage with stevia
Protocol: A lemon beverage syrup base was prepared by mixing together the following ingredients:
To a 1 litre portion of the syrup base was added 6 g of sclareolide, ex Avoca (1% w/v ethanolic solution). The mixture was then dilute with 5 litres of carbonated water to provide sclareolide at 10 ppm. This is referred to as sample 6.
To another 1 litre portion of the syrup base was added 0.12 g of sclareolide, ex Avoca (1% w/v ethanolic solution). The mixture was then dilute with 5 litres of carbonated water to provide sclareolide at 0.2 ppm. This is referred to as sample 7.
A third portion of the syrup base was used as is (i.e. with no sclareolide present) and was diluted with 5 litres of carbonated water. This is referred to as sample 8.
30 panellists were then asked to evaluate (i) sample 6 and sample 8 and (ii) sample 7 and sample 8 in a balanced, randomized blind test for Overall Flavor, Sweetness, Tartness/Acidity, Lingering Aftertaste, Metallic/Bitterness, Off-note aftertaste and Liquorice Flavor on an 11-point continuous intensity scale where 0=Imperceptible and 10=Extremely Pronounced.

CC1(C)CCC[C@]2(C)[C@H]3CC(=O)O[C@]3(C)CC[C@@H]12 [sclareolide]
effect on the acidity, bitterness or sweetness of the product [1]: does not appear to have a significant effect
effect on the liquorice taste of the product [1]: significantly reduces the liquorice taste
masking effect ([2]; sclareolide at 0.2 ppm): little or no masking effect observed
masking liquorice notes ([2]; sclareolide at 10 ppm): not achieved
